Measured values reported in US20230365590A1, “BIPHENYL COMPOUND AS IMMUNOMODULATOR, PREPARATION METHOD THEREFOR AND APPLICATION THEREOF” (SHENZHEN CHIPSCREEN BIOSCIENCES CO., LTD., priority 2020, published 2023).

These compounds were tested on PD-1/PD-L1 mediated inhibitory signal to T cell activation (CHO-PD-L1-CD3L cells and Jurkat-PD-1-NFAT cells) (assay: Blocking of PD-1/PD-L1 mediated inhibitory signal to T cell activation at cell level (NFAT luciferase reporter, co-culture)). Settings: Homo sapiens, CHO-PD-L1-CD3L / Jurkat-PD-1-NFAT co-culture, 6 h.
Assay type: cell-based
Procedure: In order to test the effect of interaction between PD-1 and PD-L1 on T cell activation signal in immune response, CHO-PD-L1-CD3L cells stably expressing human PD-L1 molecule and anti-CD3 single-chain antibody (ScFv) and Jurkat-PD-1-NFAT cells stably expressing human PD-1 molecule and NFAT reporter gene were constructed. When two kinds of cells are incubated together, anti-CD3 ScFv on the CHO cell surface and membrane CD3 molecule of Jurkat cell combine to transmit an activation signal into Jurkat cell. However, due to the binding of PD-L1 on the CHO cell surface and PD-1 molecule on the Jurkat cell surface at the same time, a signal for inhibiting activation is transmitted inward, so that luciferase reporter gene cannot be expressed. When an immunocheckpoint antibody or small-molecule inhibitor is added, the binding of PD-1 and PD-L1 is blocked, the NFAT pathway activated by CD3 ScFv antibody and CD3 cross-linking mediated T cell activation signal is no longer affected by the inhibitory signal, and the downstream luciferase reporter gene starts to be expressed. Chemiluminescence signals proportional to reporter gene activation can be detected by adding a catalytic substrate.
CHO-PD-L1-CD3L cells expressing human PD-L1 molecule and anti-CD3 single-chain antibody (ScFv) and Jurkat-PD-1-NFAT cells stably expressing human PD-1 molecule and NFAT reporter gene were all independently constructed and presented by Dr. Chen Bo (KeyMed Biosciences (Chengdu) Co., Ltd. Puromycin (Cat # 540411) and Hygromycin B (Cat # V900372) for stable culture of transfected cells were purchased from Sigma, PMA (Cat # P1585) was purchased from Sigma, and the anti human PD-L1 antibody (Cat # GMP-A066) was purchased from Novoprotein Company. The Luciferase substrate solution (Cat # E6485) and the luciferase-specific cell lysate 5×(Cat # E1531) were purchased from Promega company. The fluorescence detector Tecan (Spark 10M) was purchased from Tecan Company in Switzerland.
Main Process of Experiment • (1) On the day before the experiment, 100 μL of CHO-PD-L1-CD3L cells (about 4×10^4 cells/well) were inoculated at 37° C. overnight in a 96-well cell culture plate, and the culture medium was DMEM/F12 containing 10% FBS, 8 μg/mL Puromycin and 200 μg/mL Hygromycin B. • (2) The test compound was diluted with 0.1% PBST to obtain solutions with different concentration gradients, and then added into 96-well plates and incubated for 30 min in advance. The RPMI 1640 complete medium containing 10% FBS, 8 μg/mL Puromycin and 200 μg/mL Hygromycin B was used to adjust the Jurkat-PD-1-NFAT cell count to 2×10^5 cells/mL, and 100 ng/mL PMA (10 mg/mL storage solution prepared with DMSO) was added to amplify the T cell activation signal. 100 μL of the Jurkat-PD-1-NFAT cells were added into each well of the 96-well plates for co-culture. • (3) During the test reaction, control groups were set, including the solvent control without adding the test compound and the positive control with the addition of the […] in the experimental system. All tests were conducted by use of multiple holes. • (4) Incubation was continued at 37° C. for 6 h, 40 μL of 5×cell lysate was added directly, the solution was mixed well and placed at room temperature for 10 min to completely lyse cells. 50 μL of lysed cell solution was transferred to a fluorescence detection plate, 30 μL of luciferase substrate solution was then added, and the chemiluminescence detection program was immediately selected on the fluorescence detector for determination. • (5) Calculation formula of the inhibition rate of the test compound against T cell activation signal at the cell level: The inhibition rate against T cell activation signal (%)=(original chemiluminescence value of the test hole−solvent control)/(the highest original chemiluminescence value determined in the compound test hole−solvent control)×100%. […]
With `COCC12CCC(CCN3CCc4c(nc(C(=O)Nc5cccc(-c6cccc(NC(=O)c7nc8c(n7C)CCN(CCC79CCC(C(=O)O)(CC7)C9)C8)c6C)c5Cl)n4C)C3)(CC1)C2` [Compound I-4, 4-(2-(2-((2′-chloro-3′-(5-(2-(4-(methoxymethyl)bicyclo[2. 2.1]heptan-1-yl)ethyl)-1-methyl-4,5,6,7-tetrahydro-1H-imidazo[4,5-c]pyridine-2-carboxamido)-2-methyl-[1 ,1′-biphenyl]-3-yl)carbamoyl)-1-methyl-1,4,6,7-tetrahydro-5H-imidazo[4,5-c]pyridin-5-yl)ethyl)bicyclo[2.2.1]heptane-1-carboxylic acid] the EC50 was 28.3 nM. `COCC12CCC(CCN3CCc4c(nc(C(=O)Nc5cccc(-c6cccc(NC(=O)c7nc8c(n7C)CCN(CCC79CCC(C(=O)O)(CC7)C9)C8)c6Cl)c5C)n4C)C3)(CC1)C2` [Compound I-5, 4-(2-(2-((2-chloro-3′-(5-(2-(4-(methoxymethyl)bicyclo[2.2.1]heptan-1-yl)ethyl)-1-methyl-4,5,6,7-tetrahydro-1H-imidazo[4,5-c]pyridine-2-carboxamido)-2′-methyl-[1,1′-biphenyl]-3-yl)carbamoyl)-1-methyl-1,4,6,7-tetrahydro-5H-imidazo [4,5-c]pyridin-5-yl)ethyl)bicyclo[2.2.1]heptane-1-carboxylic acid] showed an EC50 of 26.7 nM. For `Cn1c(C(=O)Nc2cccc(-c3cccc(NC(=O)c4nc5c(n4C)CCN(CCC46CCC(C(=O)O)(CC4)C6)C5)c3Cl)c2F)nc2c1CCN(CCC13CCC(COC(F)F)(CC1)C3)C2` [Compound I-10, 4-(2-(2-((2-chloro-3′-(5-(2-(4-((difluoromethoxy)methyl)bicyclo[2.2.1]heptan-1-yl)ethyl)-1-methyl-4,5,6,7-tetrahydro-1H-imidazo[4,5-c]pyridine-2-carboxamido)-2′-fluoro-[1,1′-biphenyl]-3-yl)carbamoyl)-1-methyl-1,4,6,7-tetrahydro-5H-imidazo[4,5-c]pyridin-5-yl)ethyl)bicyclo[2.2.1]heptane-1-carboxylic acid], the EC50 was 35.5 nM. `COCC12CCC(CCN3CCc4c(nc(C(=O)Nc5cccc(-c6cccc(NC(=O)c7nc8c(n7C)CCN(CCC79CCC(C(=O)O)(CC7)C9)C8)c6Cl)c5F)n4C)C3)(CC1)C2` [Compound I-9, 4-(2-(2-((2-chloro-2′-fluoro-3′-(5-(2-(4-(methoxymethyl)bicyclo[2.2.1]heptan-1-yl)ethyl)-1-methyl-4,5,6,7-tetrahydro-1H-imidazo [4,5-c]pyridine-2-carboxamido)-[1,1′-biphenyl]-3-yl)carbamoyl)-1-methyl-1,4,6,7-tetrahydro-5H-imidazo[4,5-c]pyridin-5-yl)ethyl)bicyclo[2.2.1]heptane-1-carboxylic acid] gave an EC50 of 6.79 nM. Compound `COCC12CCC(CCCN3CCc4c(nc(C(=O)Nc5cccc(-c6cccc(NC(=O)c7nc8c(n7C)CCN(CCC79CCC(C(=O)O)(CC7)C9)C8)c6C)c5Cl)n4C)C3)(CC1)C2` [Compound I-1, 4-(2-(2-((2′-chloro-3′-(5-(3-(4-(methoxymethyl)bicyclo[2. 2.1]heptan-1-yl)propyl)-1-methyl-4,5,6,7-tetrahydro-1H-imidazo[4,5-c]pyridine-2-carboxamido) -2-methyl-[1,1′-biphenyl]-3-yl)carbamoyl)-1-methyl-1,4,6,7-tetrahydro-5H-imidazo[4,5-c]pyridin-5-yl)ethyl)bicyclo[2.2.1]heptane-1-carboxylic acid] has an EC50 of 33.9 nM. With `COCC12CCC(CN3CCc4c(nc(C(=O)Nc5cccc(-c6cccc(NC(=O)c7nc8c(n7C)CCN(CCC79CCC(C(=O)O)(CC7)C9)C8)c6Cl)c5Cl)n4C)C3)(CC1)C2` [Compound I-8, 4-(2-(2-((2,2′-dichloro-3′-(5-((4-(methoxymethyl)bicyclo[2.2.1]heptan-1-yl)methyl)-1-methyl-4,5,6,7-tetrahydro-1H-imidazo[4,5-c]pyridine-2-carboxamido)-[1, 1′-biphenyl]-3-yl)carbamoyl)-1-methyl-1,4,6,7-tetrahydro-5H-imidazo[4,5-c]pyridin-5-yl)ethyl)bicyclo[2.2.1]heptane-1-carboxylic acid] the EC50 was 30.3 nM. For `CCOCC12CCC(CCN3CCc4c(nc(C(=O)Nc5cccc(-c6cccc(NC(=O)c7nc8c(n7C)CCN(CCC79CCC(C(=O)O)(CC7)C9)C8)c6C)c5Cl)n4C)C3)(CC1)C2` [Compound I-3, 4-(2-(2-((2′-chloro-3′-(5-(2-(4-(ethoxymethyl)bicyclo[2.2.1]heptan-1-yl)ethyl)-1-methyl-4,5 ,6,7-tetrahydro-1H-imidazo[4,5-c]pyridine-2-carboxamido)-2-methyl-[1,1′-biphenyl]-3-yl)carbamoyl)-1-methyl-1,4,6,7-tetrahydro-5H-imidazo[4,5-c]pyridin-5-yl)ethyl)bicyclo[2.2.1]heptane-1-carboxylic acid], the EC50 was 17 nM. `Cn1c(C(=O)Nc2cccc(-c3cccc(NC(=O)c4nc5c(n4C)CCN(CCC46CCC(C(=O)O)(CC4)C6)C5)c3Cl)c2Cl)nc2c1CCN(CCC13CCC(COC(F)F)(CC1)C3)C2` [Compound I-7, 4-(2-(2-((2,2′-dichloro-3′-(5-(2-(4-((difluoromethoxy)methyl)bicyclo[2.2.1]heptan-1-yl)ethyl)-1-methyl-4,5,6,7-tetrahydro-1H-imidazo[4,5-c]pyridine-2-carboxamido)-[1,1′-biphenyl]-3-yl)carbamoyl)-1-methyl-1,4,6,7-tetrahydro-5H-imidazo[4,5-c]pyridin-5-yl)ethyl)bicyclo[2.2.1]heptane-1-carboxylic acid] gave an EC50 of 39.2 nM. `COCC12CCC(CCCN3CCc4c(nc(C(=O)Nc5cccc(-c6cccc(NC(=O)c7nc8c(n7C)CCN(CCC79CCC(C(=O)O)(CC7)C9)C8)c6Cl)c5C)n4C)C3)(CC1)C2` [Compound I-2, 4-(2-(2-((2-chloro-3′-(5-(3-(4-(methoxymethyl)bicyclo[2.2.1]heptan-1-yl)propyl)-1-methyl-4,5,6,7-tetrahydro-1H-imidazo[4,5-c]pyridine-2-carboxamido)-2′-methyl-[1,1′-biphenyl]-3-yl)carbamoyl)-1-methyl-1,4,6,7-tetrahydro-5H-imidazo[4,5-c]pyridin-5-yl)ethyl)bicyclo[2.2.1]heptane-1-carboxylic acid] gave an EC50 of 18.1 nM. Compound `COCC12CCC(CCN3CCc4c(nc(C(=O)Nc5cccc(-c6cccc(NC(=O)c7nc8c(n7C)CCN(CC79CCC(C(=O)O)(CC7)C9)C8)c6Cl)c5C)n4C)C3)(CC1)C2` [Compound I-12, 4-((2-((2-chloro-3′-(5-(2-(4-(methoxymethyl)bicyclo[2.2.1]heptan-1-yl)ethyl)-1-methyl-4,5,6,7-tetrahydro-1H-imidazo[4,5-c]pyridine-2-carboxamido)-2′-methyl-[1,1′-biphenyl]-3-yl)carbamoyl)-1-methyl-1,4,6,7-tetrahydro-5H-imidazo[4,5-c]pyridin-5-yl)methyl)bicyclo[2.2.1]heptane-1-carboxylic acid] has an EC50 of 38.3 nM. Compound `COCC12CCC(CCN3CCc4c(nc(C(=O)Nc5cccc(-c6cccc(NC(=O)c7nc8c(n7C)CCN(CCC79CCC(C(=O)O)(CC7)C9)C8)c6Cl)c5C#N)n4C)C3)(CC1)C2` [Compound I-11, 4-(2-(2-((2-chloro-2′-cyano-3′-(5-(2-(4-(methoxymethyl)bicyclo[2.2.1]heptan-1-yl)ethyl)-1-methyl-4,5,6,7-tetrahydro-1H-imidazo[4,5-c]pyridine-2-carboxamido)-[1,1′-biphenyl]-3-yl)carbamoyl)-1-methyl-1,4,6,7-tetrahydro-5H-imidazo[4,5-c]pyridin-5-yl)ethyl)bicyclo[2.2.1]heptane-1-carboxylic acid] has an EC50 of 26.3 nM.
